Source: US20110092546A1, “SUBSTITUTED BENZIMIDAZOLES FOR NEUROFIBROMATOSIS” (NOVARTIS AG, priority 2008, published 2011)
Where two headings read alike, the source gives them in different places.

Tests used:
[1] = tested on: NF90 cells; details: NF90 cells (NF1+/−); cited from earlier work
[2] = tested on: ST88 cells; details: ST88 cells (NF1+/−); cited from earlier work
[3] = tested on: phospho-ERK in ST88 cells; test: phospho-ERK ELISA in ST88 cells; assay type: cell-based
Description: (§1) The ST88 cell line (NF1^+/−) contains elevated levels of Ras-GTP and is often used as a pre-clinical model for NF1. […] Pathway inhibition and anti-proliferative activity of RAF265 in ST88 cells.

[4] = tested on: phospho-MEK in ST88 cells; test: phospho-MEK ELISA in ST88 cells; assay type: cell-based
Description: as §1

[5] = tested on: VEGF-induced angiogenesis in Matrigel plug; test: VEGF-CHO Matrigel plug angiogenesis model in mice (hemoglobin, Drabkin's reagent); assay type: in vivo; details: treated days 1 and 4, plugs excised day 5
Description: Due to the inhibition of VEGFR-2, RAF265 also has anti-angiogenic activity which may also provide a therapeutic benefit in treating neurofibromas. To confirm that RAF265 inhibits the growth of new blood vessels (i.e., angiogenesis) in vivo, mice were implanted with Matrigel® containing Chinese hamster ovary cells (CHO) overexpressing VEGF and then treated mice with a dose range of RAF265 or a vehicle control (days 1 and 4). In this model, VEGF expressed from the CHO cells induces angiogenesis within the Matrigel® plug. Plugs are excised on day 5 and assayed for hemoglobin using Drabkin's reagent, as a measure of the degree of angiogenesis.

[6] = tested on: ST88 cells; test: Proliferation of ST88 cells; assay type: cell-based
Description: as §1

Row | SMILES | effect on proliferation (in words) [1] | levels of phospho-ERK (in words) [1] | effect on proliferation (in words) [2] | levels of phospho-ERK (in words) [2] | levels of phospho-ERK after treatment (in words) ([3]; ST88 cells) | EC50 ([3]; ST88 cells (NF1+/−)) | levels of phospho-MEK after treatment (in words) ([4]; ST88 cells) | EC50 ([4]; ST88 cells (NF1+/−)) | dose giving maximal suppression of hemoglobin content [5] | hemoglobin content of Matrigel plug (in words) [5] | effect on proliferation (in words) ([6]; ST88 cells) | EC50 ([6]; ST88 cells (NF1+/−))
1 | O=C(NOCC1CC1)c1ccc(F)c(F)c1Nc1ccc(I)cc1Cl [CI-1040] | inhibited proliferation | decreased levels of phospho-ERK | inhibited proliferation | decreased levels of phospho-ERK | – | – | – | – | – | – | – | –
2 | Cn1c(Nc2ccc(C(F)(F)F)cc2)nc2cc(Oc3ccnc(-c4ncc(C(F)(F)F)[nH]4)c3)ccc21 [Example 1] | – | – | – | – | decreased levels | 185 nM | decreased levels | 150 nM | 50 mg/kg | dose-dependent decrease | inhibition of proliferation | 207 nM
